pIC50: −log10 of the molar value.
Tests used:
[1] = molecular target: T1, ER-α in MCF-7 cells (Homo sapiens, UniProt P03372); assay: Breast Cancer Cell ER-α In Cell Western Assay (SP1); assay type: cell-based; details: 4 or 24 hr post compound addition; for Emax: MCF7, SP1 antibody, read-out: ER-α In Cell Western Assay (SP1) Max Response; for DC50: SP1 antibody, read-out: ER-α In Cell Western Assay (SP1) IC50
T1 construct: endogenous in cells; host or cells: MCF-7
T1 sequence (P03372 1-595): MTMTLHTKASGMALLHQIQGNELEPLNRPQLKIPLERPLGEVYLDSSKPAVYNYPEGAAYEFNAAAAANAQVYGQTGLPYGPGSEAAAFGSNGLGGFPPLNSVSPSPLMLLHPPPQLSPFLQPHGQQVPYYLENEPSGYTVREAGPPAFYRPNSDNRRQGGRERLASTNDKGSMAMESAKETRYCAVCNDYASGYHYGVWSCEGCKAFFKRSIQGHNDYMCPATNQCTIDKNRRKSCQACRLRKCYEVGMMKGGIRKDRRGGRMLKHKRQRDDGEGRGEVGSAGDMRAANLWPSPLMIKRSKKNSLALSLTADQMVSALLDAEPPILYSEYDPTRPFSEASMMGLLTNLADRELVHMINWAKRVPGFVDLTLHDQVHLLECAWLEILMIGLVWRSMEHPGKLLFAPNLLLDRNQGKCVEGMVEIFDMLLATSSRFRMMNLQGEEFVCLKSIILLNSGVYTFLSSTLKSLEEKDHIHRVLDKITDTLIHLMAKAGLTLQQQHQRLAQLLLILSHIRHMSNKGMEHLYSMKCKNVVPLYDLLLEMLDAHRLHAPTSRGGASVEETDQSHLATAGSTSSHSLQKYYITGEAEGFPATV
Summary of the method: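 MCF-7 cells in charcoal-stripped FBS medium, treated with 11-point semilog dilutions (0.3–0.000003 μM final) for 4 or 24 h. Fixed cells immunostained with SP1 antibody (800 nm) and DRAQ5 DNA (700 nm); ER/DNA ratio expressed as % of untreated cells.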

[2] = tested on: MCF-7 cells; assay: Breast Cancer Cell Viability Assays (MCF-7, CellTiter-Glo); assay type: cell-based; details: 5 days' compound exposure; for pIC50: Homo sapiens, MCF7, 120 h
Summary of the method: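 MCF-7 cells (320/well, RPMI with 10% FBS) exposed for 5 days to an eleven-point semilog series, 0.3–0.000003 μM final. Viability read by CellTiter-Glo luminescence, expressed as background-corrected percent of untreated cells.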

Structure (SMILES)	Emax [1]	DC50 [1]	MCF7 Viability Assay Max Response [2]	pIC50 [2]
O=C(O)/C=C/c1ccc(/C(=C(\c2ncccc2Cl)C2CCC2)c2ccc3[nH]nc(F)c3c2)cn1 [Example 259, (E)-3-(5-((Z)-2-(3-Chloropyridin-2-yl)-2-cyclobutyl-1-(3-fluoro-1H-indazol-5-yl)vinyl)pyridin-2-yl)acrylic acid]	≥ 40%	≤ 100 nM	++ (++ = a single % value ≧ 40%)	≥ 7.00
O=C(O)/C=C/c1ccc(/C(=C(\c2ncccc2C(F)(F)F)C2CCC2)c2ccc3[nH]nc(F)c3c2)cn1 [Example 260, (E)-3-(5-((Z)-2-Cyclobutyl-1-(3-fluoro-1H-indazol-5-yl)-2-(3-(trifluoromethyl)pyridin-2-yl)vinyl)pyridin-2-yl)acrylic acid]	≥ 40%	≤ 100 nM	++ (++ = a single % value ≧ 40%)	≥ 7.00
CC/C(=C(/c1ccc(/C=C/C(=O)O)cc1)c1ccc2[nH]nc(F)c2c1)c1ccccc1Cl [Example 261, (E)-3-(4-((E)-2-(2-Chlorophenyl)-1-(3-fluoro-1H-indazol-5-yl)but-1-en-1-yl)phenyl)acrylic acid]	≥ 40%	≤ 100 nM	++ (++ = a single % value ≧ 40%)	≥ 7.00
CC/C(=C(/c1ccc(/C=C/C(=O)O)cc1)c1ccc2[nH]nc(F)c2c1)c1ncccc1Cl [Example 262, (E)-3-(4-((E)-2-(3-Chloropyridin-2-yl)-1-(3-fluoro-1H-indazol-5-yl)but-1-en-1-yl)phenyl)acrylic acid]	≥ 40%	≤ 100 nM	++ (++ = a single % value ≧ 40%)	≥ 7.00
CC/C(=C(/c1ccc(/C=C/C(=O)O)cc1)c1ccc2[nH]nc(F)c2c1)c1ncccc1C(F)(F)F [Example 263, (E)-3-(4-((E)-1-(3-Fluoro-1H-indazol-5-yl)-2-(3-(trifluoromethyl)pyridin-2-yl)but-1-en-1-yl)phenyl)acrylic acid]	≥ 40%	≤ 100 nM	++ (++ = a single % value ≧ 40%)	≥ 7.00
CC/C(=C(/c1ccc(/C=C/C(=O)O)cc1)c1ccc2[nH]nc(F)c2c1)c1ncc(Cl)cc1Cl [Example 264, (E)-3-(4-((E)-2-(3,5-Dichloropyridin-2-yl)-1-(3-fluoro-1H-indazol-5-yl)but-1-en-1-yl)phenyl)acrylic acid]	≥ 40%	≤ 100 nM	++ (++ = a single % value ≧ 40%)	≥ 7.00
O=C(O)/C=C/c1ccc(/C(=C(\c2ccccc2)C2CCC2)c2ccc3[nH]nc(F)c3c2)cc1F [Example 265, (E)-3-(4-((Z)-2-Cyclobutyl-1-(3-fluoro-1H-indazol-5-yl)-2-phenylvinyl)-2-fluorophenyl)acrylic acid]	≥ 40%	≤ 100 nM	++ (++ = a single % value ≧ 40%)	≥ 7.00
C/C(=C\C(=O)O)c1ccc(/C(=C(\c2ccccc2)C2CCC2)c2ccc3[nH]nc(F)c3c2)cc1 [Example 266, (E)-3-(4-((E)-2-Cyclobutyl-1-(3-fluoro-1H-indazol-5-yl)-2-phenylvinyl)phenyl)but-2-enoic acid]	≥ 40%	≤ 100 nM	++ (++ = a single % value ≧ 40%)	≥ 7.00
C/C(=C\c1ccc(/C(=C(\c2ccccc2)C2CCC2)c2ccc3[nH]nc(F)c3c2)cc1)C(=O)O [Example 267, (E)-3-(4-((E)-2-Cyclobutyl-1-(3-fluoro-1H-indazol-5-yl)-2-phenylvinyl)phenyl)-2-methylacrylic acid]	≥ 40%	≤ 100 nM	++ (++ = a single % value ≧ 40%)	≥ 7.00
O=C(O)/C=C/c1ccc(/C(=C(\c2ccc(Cl)cc2Cl)C2CCC2)c2ccc3[nH]nc(F)c3c2)cn1 [Example 268, (E)-3-(5-((Z)-2-Cyclobutyl-2-(2,4-dichlorophenyl)-1-(3-fluoro-1H-indazol-5-yl)vinyl)pyridin-2-yl)acrylic acid]	≥ 40%	≤ 100 nM	++ (++ = a single % value ≧ 40%)	≥ 7.00
O=C(O)/C=C/c1ccc(/C(=C(\c2ccc(F)cc2C(F)(F)F)C2CCC2)c2ccc3[nH]nc(F)c3c2)cn1 [Example 269, (E)-3-(5-((Z)-2-Cyclobutyl-1-(3-fluoro-1H-indazol-5-yl)-2-(4-fluoro-2-(trifluoromethyl)phenyl)vinyl)pyridin-2-yl)acrylic acid]	≥ 40%	≤ 100 nM	++ (++ = a single % value ≧ 40%)	≥ 7.00
COc1ccc(/C(=C(\c2ccc(/C=C/C(=O)O)nc2)c2ccc3[nH]nc(F)c3c2)C2CCC2)c(Cl)c1 [Example 270, (E)-3-(5-((Z)-2-(2-Chloro-4-methoxyphenyl)-2-cyclobutyl-1-(3-fluoro-1H-indazol-5-yl)vinyl)pyridin-2-yl)acrylic acid]	≥ 40%	≤ 100 nM	++ (++ = a single % value ≧ 40%)	≥ 7.00
O=C(O)/C=C/c1ccc(/C(=C(\c2ccc(F)cc2Cl)C2CCC2)c2ccc3[nH]nc(F)c3c2)cc1F [Example 271, (E)-3-(4-((Z)-2-(2-Chloro-4-fluorophenyl)-2-cyclobutyl-1-(3-fluoro-1H-indazol-5-yl)vinyl)-2-fluorophenyl)acrylic acid]	≥ 40%	≤ 100 nM	++ (++ = a single % value ≧ 40%)	≥ 7.00
O=C(O)/C=C/c1ccc(/C(=C(\c2ccc(OC(F)(F)F)cc2Cl)C2CCC2)c2ccc3[nH]nc(F)c3c2)cn1 [Example 272, (E)-3-(5-((Z)-2-(2-Chloro-4-(trifluoromethoxy)phenyl)-2-cyclobutyl-1-(3-fluoro-1H-indazol-5-yl)vinyl)pyridin-2-yl)acrylic acid]	≥ 40%	≤ 100 nM	++ (++ = a single % value ≧ 40%)	≥ 7.00
O=C(O)/C=C/c1ccc(/C(=C(\c2ccc(OC(F)(F)F)cc2Cl)C2CCC2)c2ccc3[nH]nc(F)c3c2)cc1 [Example 273, (E)-3-(4-((E)-2-(2-Chloro-4-(trifluoromethoxy)phenyl)-2-cyclobutyl-1-(3-fluoro-1H-indazol-5-yl)vinyl)phenyl)acrylic acid]	≥ 40%	≤ 100 nM	++ (++ = a single % value ≧ 40%)	≥ 7.00
O=C(O)/C=C/c1ccc(/C(=C(\c2ccc(C(F)(F)F)cc2Cl)C2CCC2)c2ccc3scnc3c2)cc1 [Example 274, (E)-3-(4-((E)-1-(Benzo[d]thiazol-5-yl)-2-(2-chloro-4-(trifluoromethyl)phenyl)-2-cyclobutylvinyl)phenyl)acrylic acid]	≥ 40%	≤ 100 nM	++ (++ = a single % value ≧ 40%)	≥ 7.00
O=C(O)/C=C/c1ccc(/C(=C(\c2ccc(C(F)(F)F)cc2Cl)C2CCC2)c2ccc3[nH]nc(F)c3c2)cc1 [Example 275, (E)-3-(4-((E)-2-(2-Chloro-4-(trifluoromethyl)phenyl)-2-cyclobutyl-1-(3-fluoro-1H-indazol-5-yl)vinyl)phenyl)acrylic acid]	≥ 40%	≤ 100 nM	++ (++ = a single % value ≧ 40%)	≥ 7.00
COc1ccc(/C(=C(\c2ccc(/C=C/c3noc(=O)[nH]3)cc2)c2ccc3[nH]nc(F)c3c2)C2CCC2)c(Cl)c1 [Example 276, 3-((E)-4-((E)-2-(2-Chloro-4-methoxyphenyl)-2-cyclobutyl-1-(3-fluoro-1H-indazol-5-yl)vinyl)styryl)-1,2,4-oxadiazol-5(4H)-one]	≥ 40%	≤ 100 nM	++ (++ = a single % value ≧ 40%)	≥ 7.00
O=c1[nH]c(/C=C/c2ccc(/C(=C(\c3ncc(C(F)(F)F)cc3Cl)C3CCC3)c3ccc4scnc4c3)cc2)no1 [Example 277, 3-((E)-4-((E)-1-(Benzo[d]thiazol-5-yl)-2-(3-chloro-5-(trifluoromethyl)pyridin-2-yl)-2-cyclobutylvinyl)styryl)-1,2,4-oxadiazol-5(4H)-one]	≥ 40%	≤ 100 nM	++ (++ = a single % value ≧ 40%)	≥ 7.00
COc1ccc(/C(=C(\c2ccc(/C=C/c3noc(=O)[nH]3)cc2)c2ccc3scnc3c2)C2CCC2)c(Cl)c1 [Example 278, 3-((E)-4-((E)-1-(Benzo[d]thiazol-5-yl)-2-(2-chloro-4-methoxyphenyl)-2-cyclobutylvinyl)styryl)-1,2,4-oxadiazol-5(4H)-one]	≥ 40%	≤ 100 nM	++ (++ = a single % value ≧ 40%)	≥ 7.00

From patent US9499538B2, “Estrogen receptor modulators and uses thereof” (Seragon Pharmaceuticals, Inc., priority 2012, dated 2016)
